The values that follow come from patent US20090061006A1, “Layered Nanoparticles for Sustained Release of Small Molecules” (priority 2006, published 2009).

Data set [1] has as its system human ovarian cancer cell lines. To be noted: cited from earlier work.
Data set [2] has as its system human endometrial cancer cell lines. The note with it: cited from earlier work.
The conditions of data set [3]: cited from earlier work.
The conditions of data set [4]: in vivo.
Data set [5] has as its system MDA-MB-435S human breast cancer cells. Briefly: Cytotoxicity study, thiazolyl Blue (MTT) cell viability. The note with it: 9 hours incubation. It is filed as cell-based. The procedure: MDA-MB-435S cells were seeded into 12 well plates and grown in culture media containing Leibovitz's L-15 medium, 10% fetal bovine serum, 0.01 mg/mL bovine insulin, 100 IU/mL penicillin, and 100 μg/mL streptomycin. The cells were kept in tightly closed flasks at 37° C. in an incubator and grown to 70% confluence. Treatments with free Phor21-βCG(ala) were conducted at concentrations of 5, 20, and 100 μM. Treatments with silica-peptide nanoshells were conducted at corresponding amounts, equivalent to total Phor21-βCG(ala) concentrations of 5, 20, and 100 μM. On a separate plate silica nanoshells without peptide (15 mg/mL culture medium) were added to MDA-MB-435S cell cultures to determine their effect on cell viability. In all incubations, added saline was used as a control. Total incubation time was 9 hours at 37° C. Cell viability was measured in a thiazolyl Blue assay using [3-(4,5)-Dimethylthiazol-2-yl]-2,5 Diphenyltetrazolium Bromide—MTT. Cleavage of the tetrazolium ring by active mitochondria was used as a measure of the number of living cells. Statistical significance was determined using analysis of variance (ANOVA) and a two-tailed Student's t-test. Differences were considered significant at p<0.05.

The next data set relates to breast cancer xenograft. To be noted: intravenously injected, cited from earlier work.
A further data set concerns cancer cells. Briefly: Potency in destroying cancer cells. It is filed as cell-based.
The conditions of data set [6]: cited from earlier work. The source holds these as a separate data set.

Where two headings read alike, the source gives them in different places. Where a SMILES comes first, the peptide text is derived from it. [ ]: non-standard residue; d: D form. dPhe(4-Cl) = N[C@H](Cc1ccc(Cl)cc1)C(=O)O; d2Nal = N[C@H](Cc1ccc2ccccc2c1)C(=O)O; dCit = NC(=O)NCCC[C@@H](N)C(=O)O; d3Pal = N[C@H](Cc1cccnc1)C(=O)O

As for `CC(=O)N[C@H](Cc1ccc2ccccc2c1)C(=O)N[C@H](Cc1ccc(Cl)cc1)C(=O)N[C@H](Cc1cccnc1)C(=O)N[C@@H](CO)C(=O)N[C@@H](Cc1ccc(O)cc1)C(=O)N[C@H](CCCNC(N)=O)C(=O)N[C@@H](CC(C)C)C(=O)N[C@@H](CCCNC(=N)N)C(=O)N1CCC[C@H]1C(=O)N[C@H](C)C(N)=O` [Cetrorelix] (Ac-[d2Nal][dPhe(4-Cl)][d3Pal]SY[dCit]LRP[dA]-NH2), the in vitro proliferation entry in data set [1] and in data set [2] was “inhibited” throughout.

Take `C[C@@H]1C[C@H]2[C@@H]3CCC4=CC(=O)C=C[C@]4(C)[C@@]3(F)[C@@H](O)C[C@]2(C)[C@@]1(O)C(=O)CO` [Dexamethasone]: the solubility in water entry in data set [3] is given as “insoluble”.

Turning to `CC(C)C[C@H](NC(=O)[C@@H](Cc1c[nH]c2ccccc12)NC(=O)[C@H](Cc1ccc(O)cc1)NC(=O)[C@H](CO)NC(=O)[C@H](Cc1c[nH]c2ccccc12)NC(=O)[C@H](Cc1c[nH]cn1)NC(=O)[C@@H]1CCC(=O)N1)C(=O)N[C@@H](CCCNC(=N)N)C(=O)N1CCC[C@H]1C(=O)NCC(N)=O` [triptorelin], the in vitro proliferation result in data set [1] and in data set [2] was “inhibited” in each case.

As for “Phor21-βCG(ala): 35-residue conjugate peptide KFAKFAKKFAKFAKKFAKFAK-SYAVASAQAALAAR (SEQ ID NO. 1): lytic peptide Phor21 plus gonadotropin analog ligand βCG(ala) (KFAKFAKKFAKFAKKFAKFAKSYAVASAQAALAAR; Phor21-beta-CG(ala) Peptide)”, in data set [4], the “time after which free peptide is almost completely destroyed in circulation” value was “about three”. In addition, in data set [5], the “activity at 100 micromolar versus 20 micromolar” value was “significantly lower activity”. In addition, the “toxicity against breast cancer cells” value in data set [5] (free peptide, 5, 20 and 100 μM, N=6) is on record as “destroyed”. In addition, the “cell death in treated tumors” value in the data set with breast cancer xenograft (8 mg/kg body weight, p<0.01) is “lower”; in the data set with breast cancer xenograft (0.2 and 2 mg/kg body weight, p<0.05), “significantly higher”.

As for “Phor21: membrane-disrupting lytic peptide, residues 1-21 of SEQ ID NO. 1 (KFAKFAKKFAKFAKKFAKFAK; Phor21-beta-CG(ala) Peptide)”, in the data set with cancer cells, the “potency in destroying cancer cells versus Hecate or Phor14” value is recorded as “more potent”.

On to “luteinizing hormone releasing hormone [LHRH]”, for which, in data set [6], the half-life in vivo is ~20 min.
